{
  "source": "patent US20060177503A1",
  "about": "“Bambuterol and integrin inhibitor combination and treatment method” (priority 2005, published 2006)",
  "key": {"plasma cholinesterase": {"biological_target": "plasma cholinesterase (Homo sapiens, UniProt P06276)", "sequence (P06276 29-602)": "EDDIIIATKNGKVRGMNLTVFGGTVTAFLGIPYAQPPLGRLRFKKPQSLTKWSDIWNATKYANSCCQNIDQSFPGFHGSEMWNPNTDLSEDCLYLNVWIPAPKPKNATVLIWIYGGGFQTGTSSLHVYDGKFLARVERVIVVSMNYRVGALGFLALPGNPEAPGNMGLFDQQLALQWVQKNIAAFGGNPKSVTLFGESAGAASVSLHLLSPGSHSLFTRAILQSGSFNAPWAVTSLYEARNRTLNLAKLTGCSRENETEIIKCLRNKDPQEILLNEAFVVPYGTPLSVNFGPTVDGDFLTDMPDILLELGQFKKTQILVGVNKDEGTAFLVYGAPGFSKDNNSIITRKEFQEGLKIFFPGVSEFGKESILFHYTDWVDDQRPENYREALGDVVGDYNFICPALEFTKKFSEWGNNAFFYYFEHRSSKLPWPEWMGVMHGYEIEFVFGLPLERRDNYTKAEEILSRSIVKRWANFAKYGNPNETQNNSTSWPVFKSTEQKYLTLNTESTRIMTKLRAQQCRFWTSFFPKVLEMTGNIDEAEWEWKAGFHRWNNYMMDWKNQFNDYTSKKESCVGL", "conditions": "cited from earlier work"}, "[1]": {"system": "histamine induced bronchoconstriction", "conditions": "cited from earlier work"}, "smooth muscle": {"system": "smooth muscle", "conditions": "cited from earlier work"}, "Hydrolytic stability": {"test": "Hydrolytic stability", "assay_type": "physicochemical", "description": "The pharmaceutical dosage forms of the present invention can be prepared according to the examples set out below. […] Furthermore, both compounds are weak bases and the solubility and stability of the compounds are sensitive to counter-ions. In order to assure the stability of the product and to achieve desirable solubility of the dosage form, the choice of excipient is critical. Including an acidulating agent such as fumaric acid, adipic acid, succinic acid, tartaric acid, citric acid, lactic acid, maleic acid, etc., in the formulation, as well as eliminating soluble cations, is important to assure the solubility and stability of the product."}, "[2]": {"biological_target": "T1, (Homo sapiens, UniProt P13612)", "T1 sequence (P13612 34-1032)": "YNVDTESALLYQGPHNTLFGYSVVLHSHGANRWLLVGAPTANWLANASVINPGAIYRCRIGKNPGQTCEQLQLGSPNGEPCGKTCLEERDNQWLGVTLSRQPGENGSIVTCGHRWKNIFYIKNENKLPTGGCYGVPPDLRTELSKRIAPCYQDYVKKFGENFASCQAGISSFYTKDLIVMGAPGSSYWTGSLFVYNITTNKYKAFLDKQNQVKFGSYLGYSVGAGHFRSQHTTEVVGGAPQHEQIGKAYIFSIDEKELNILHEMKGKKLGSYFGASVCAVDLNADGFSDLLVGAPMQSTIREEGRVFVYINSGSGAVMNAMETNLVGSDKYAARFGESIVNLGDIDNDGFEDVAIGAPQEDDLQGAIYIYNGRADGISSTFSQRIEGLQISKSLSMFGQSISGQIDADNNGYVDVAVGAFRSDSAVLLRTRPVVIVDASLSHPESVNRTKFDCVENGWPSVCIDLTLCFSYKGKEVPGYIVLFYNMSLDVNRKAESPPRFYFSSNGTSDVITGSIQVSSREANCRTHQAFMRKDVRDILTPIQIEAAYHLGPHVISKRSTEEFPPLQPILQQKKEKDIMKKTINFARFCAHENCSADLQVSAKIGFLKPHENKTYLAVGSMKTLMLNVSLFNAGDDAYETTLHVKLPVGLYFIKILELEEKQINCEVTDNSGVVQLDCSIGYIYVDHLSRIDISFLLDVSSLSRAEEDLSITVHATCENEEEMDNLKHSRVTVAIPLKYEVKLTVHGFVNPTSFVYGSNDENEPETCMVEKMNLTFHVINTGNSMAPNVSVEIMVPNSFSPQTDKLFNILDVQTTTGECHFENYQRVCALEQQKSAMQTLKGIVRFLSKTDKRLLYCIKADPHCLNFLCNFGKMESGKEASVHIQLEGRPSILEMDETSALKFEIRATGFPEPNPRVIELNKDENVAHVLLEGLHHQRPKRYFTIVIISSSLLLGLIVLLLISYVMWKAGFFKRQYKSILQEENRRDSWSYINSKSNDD", "test": "In vitro binding to α4 integrin, activated and not activated"}, "α4/β7": {"biological_target": "T2, α4/β7 (Homo sapiens, UniProt P13612+P26010)", "T2 sequence (P13612 34-1032)": "T1 sequence (P13612 34-1032)", "T2 sequence (P26010 20-798)": "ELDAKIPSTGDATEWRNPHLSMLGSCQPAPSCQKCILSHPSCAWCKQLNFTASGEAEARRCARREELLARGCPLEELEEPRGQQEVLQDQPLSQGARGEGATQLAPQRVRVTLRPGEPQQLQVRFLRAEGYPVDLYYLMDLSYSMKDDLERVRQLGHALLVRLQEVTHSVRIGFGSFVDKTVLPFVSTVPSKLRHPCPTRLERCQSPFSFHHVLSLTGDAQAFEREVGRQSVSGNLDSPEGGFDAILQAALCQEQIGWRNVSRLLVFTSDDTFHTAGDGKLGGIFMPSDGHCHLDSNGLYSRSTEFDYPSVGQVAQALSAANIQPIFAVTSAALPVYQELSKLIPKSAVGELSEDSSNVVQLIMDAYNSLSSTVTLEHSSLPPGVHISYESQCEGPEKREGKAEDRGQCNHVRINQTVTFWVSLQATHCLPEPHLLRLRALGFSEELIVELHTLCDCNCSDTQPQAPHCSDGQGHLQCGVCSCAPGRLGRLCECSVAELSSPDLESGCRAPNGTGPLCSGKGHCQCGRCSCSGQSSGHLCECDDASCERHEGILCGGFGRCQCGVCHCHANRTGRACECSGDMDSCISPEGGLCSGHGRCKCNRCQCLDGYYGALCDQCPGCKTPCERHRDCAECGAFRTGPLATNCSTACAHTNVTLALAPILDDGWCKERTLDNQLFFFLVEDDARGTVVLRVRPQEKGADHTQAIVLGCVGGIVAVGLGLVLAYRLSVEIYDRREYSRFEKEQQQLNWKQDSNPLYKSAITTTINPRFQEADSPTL", "test": "Inhibition of binding of α4/β7 to MadCAM-1", "description": "(§1) R411 inhibits the binding of α4/β1 to vascular cell adhesion molecule (VCAM-1) and α4/β7 to MadCAM-1 by […] is disclosed in U.S. Pat. No. 6,229,011, which disclosure is incorporated by reference herein."}, "key inflammatory cells": {"system": "key inflammatory cells", "test": "Migration of inflammatory cells from the blood into the lungs", "conditions": "in vivo"}, "[3]": {"system": "mild/moderate asthmatics not treated with inhaled corticosteroids", "test": "ARES study: R411 monotherapy over a 12 week treatment period", "assay_type": "in vivo, human", "method": "The ARES study illustrated in FIG. 3 was designed to evaluate the safety and efficacy of monotherapy R411 over a 12 week treatment period in 480 mild/moderate asthmatics not treated with inhaled corticosteroids. Patients were randomized to one of four cohorts: 50, 200, 600 mg QD R411, or placebo (n=120/group).\nThe ARES study evaluated the safety and efficacy of monotherapy with R411 over a 12-week treatment period in 479 mild/moderate asthmatics not treated with inhaled corticosteroids. Patients were randomized to one of four cohorts: 50, 200, 600 mg once daily R411, or placebo."}, "[4]": {"system": "persistent asthmatics treated with low to medium inhaled corticosteroids", "test": "MARS study: R411 added to inhaled corticosteroids, 12 week treatment period", "assay_type": "in vivo, human", "conditions": "added to moderate dose inhaled corticosteroids, subpopulation with not well controlled asthma", "description": "As set out above, a second component in the solid pharmaceutical dosage form comprises a therapeutically effective amount of R411 (N-(2-chloro-6-methylbenzoyl)-4-[(2,6-dichlorobenzoyl)amino]-L-phenylalanine-2-(diethylamino)ethyl ester), or a pharmaceutically acceptable salt thereof. […] The MARS study illustrated in FIG. 2 was designed to evaluate the safety and efficacy of R411 over a 12 week treatment period in 350 persistent asthmatics being treated with a stable dose of low to medium inhaled corticosteroids and inhaled short acting β2-agonist. Patients were randomized to one of five cohorts: 50, 200, 600 mg once daily (QD) or 300 mg twice daily (BID) R411, or placebo (n=70/group). After a 2-week placebo run-in period and subsequent 2-week add-on period (R411 or placebo), morning inhaled corticosteroids were removed. Two weeks later, evening inhaled corticosteroids were removed, and patients remained in the treatment period for an additional 8 weeks. The primary endpoint in the study was the percentage change in FEV1 from baseline, and secondary endpoint included PEFR, asthma exacerbations, (2-agonist use, asthma control questionnaire, asthma symptom scores, nocturnal awakenings, FEF25-75 and rate of asthma treatment failures."}, "atopic primate": {"system": "atopic primate", "test": "Airway inflammation in the atopic primate, oral R411", "assay_type": "in vivo", "conditions": "oral administration, FIG. 4"}, "α4/β1": {"biological_target": "α4/β1 (Homo sapiens, UniProt P05556+P13612)", "sequence (P05556 21-798, one chain of several)": "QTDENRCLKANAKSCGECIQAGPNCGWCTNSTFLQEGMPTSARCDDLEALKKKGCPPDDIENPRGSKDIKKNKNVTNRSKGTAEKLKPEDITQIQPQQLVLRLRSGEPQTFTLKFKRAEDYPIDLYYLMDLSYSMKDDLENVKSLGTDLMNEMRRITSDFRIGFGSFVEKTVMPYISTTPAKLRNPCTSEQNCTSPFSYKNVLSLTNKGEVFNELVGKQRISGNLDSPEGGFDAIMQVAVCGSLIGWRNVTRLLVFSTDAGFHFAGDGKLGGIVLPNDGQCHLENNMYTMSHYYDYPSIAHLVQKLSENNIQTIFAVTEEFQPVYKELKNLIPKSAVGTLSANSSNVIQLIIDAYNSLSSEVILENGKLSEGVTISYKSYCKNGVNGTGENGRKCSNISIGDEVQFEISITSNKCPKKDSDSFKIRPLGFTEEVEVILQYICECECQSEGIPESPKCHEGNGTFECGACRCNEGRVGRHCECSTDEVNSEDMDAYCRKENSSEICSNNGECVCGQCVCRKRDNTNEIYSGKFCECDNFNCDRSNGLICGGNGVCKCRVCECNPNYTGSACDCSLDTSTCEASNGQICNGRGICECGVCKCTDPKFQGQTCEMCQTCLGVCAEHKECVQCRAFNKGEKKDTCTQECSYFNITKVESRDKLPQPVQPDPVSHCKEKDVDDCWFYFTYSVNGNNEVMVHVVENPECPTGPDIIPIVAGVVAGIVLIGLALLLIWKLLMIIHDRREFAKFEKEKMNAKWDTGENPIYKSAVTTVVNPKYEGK", "test": "Inhibition of binding of α4/β1 to VCAM-1", "description": "as §1"}},
  "data": [
    {"compound": "CN(C)C(=O)Oc1cc(OC(=O)N(C)C)cc(C(O)CNC(C)(C)C)c1", "note": "(single isomer, unassigned; (-)) [(−)-bambuterol]", "values": [
      {"measurement": "activity as plasma cholinesterase inhibitors", "setting": "plasma cholinesterase", "result": "equally active"}
    ]},
    {"compound": "CN(C)C(=O)Oc1cc(OC(=O)N(C)C)cc([C@H](O)CNC(C)(C)C)c1", "note": "[(+)-bambuterol]", "values": [
      {"measurement": "activity as plasma cholinesterase inhibitors", "setting": "plasma cholinesterase", "result": "equally active"}
    ]},
    {"compound": "CN(C)C(=O)Oc1cc(OC(=O)N(C)C)cc(C(O)CNC(C)(C)C)c1", "note": "(centres unmarked) [Bambuterol, dimethylcarbamic acid 5-[2-[(1,1-dimethylethyl)amino]-1-hydroxyethyl]-1,3-phenylene ester]", "values": [
      {"measurement": "duration of the relaxing activity", "setting": "[1]; equipotent doses, compared with terbutaline", "result": "more prolonged"},
      {"measurement": "protective effect against histamine induced bronchoconstriction", "setting": "[1]; oral administration", "result": "sustained protective effect"},
      {"measurement": "smooth muscle relaxing properties", "setting": "smooth muscle", "result": "did not exert any"},
      {"measurement": "hydrolytic degradation", "setting": "Hydrolytic stability", "result": "susceptible to hydrolytic degradation"}
    ]},
    {"compound": "CCN(CC)CCOC(=O)[C@H](Cc1ccc(NC(=O)c2c(Cl)cccc2Cl)cc1)NC(=O)c1c(C)cccc1Cl", "note": "[R411, N-(2-Chloro-6-methylbenzoyl)-4-[(2,6-dichlorobenzoyl)amino]-L-phenylalanine-2-(diethylamino)ethyl ester]", "values": [
      {"measurement": "binding affinity", "setting": "[2]; activated α4 ligand", "result": "high affinity"},
      {"measurement": "dissociation", "setting": "[2]; activated α4 ligand", "result": "slow dissociation"},
      {"measurement": "dissociation", "setting": "[2]; receptor not activated", "result": "more rapid"},
      {"measurement": "in vitro binding affinity", "setting": "[2]; receptor not activated", "result": "lower"},
      {"measurement": "binding of α4/β7 to MadCAM-1", "setting": "α4/β7", "result": "inhibits"},
      {"measurement": "effectiveness against α4/β7 integrin", "setting": "α4/β7", "result": "effective"},
      {"measurement": "migration of key inflammatory cells from the blood into the lungs", "setting": "key inflammatory cells", "result": "block the migration"},
      {"measurement": "Asthma Control Questionnaire Scores", "setting": "[3]; compared to placebo", "result": "Improvement"},
      {"measurement": "Asthma Quality-of-Life", "setting": "[3]; compared to placebo", "result": "Improvement"},
      {"measurement": "decrease in daytime asthma symptom score", "setting": "[3]; monotherapy, 12 weeks", "result": "Statistically significant improvements"},
      {"measurement": "decrease in nocturnal symptom score", "setting": "[3]; monotherapy, 12 weeks", "result": "Statistically significant improvements"},
      {"measurement": "reducing rescue albuterol use", "setting": "[3]; monotherapy, 12 weeks", "result": "Statistically significant improvements"},
      {"measurement": "small airway flow rates as measured by FEF25-75", "setting": "[3]; monotherapy, FIG. 3", "result": "significant effect"},
      {"measurement": "large airway flow rates as measured by FEV1", "setting": "[4]; FIG. 1", "result": "additive effect"},
      {"measurement": "small airway flow rates measured by FEF25-75", "setting": "[4]; FIG. 2", "result": "additive effect"},
      {"measurement": "airway inflammation", "setting": "atopic primate", "result": "attenuates airway inflammation"},
      {"measurement": "binding of α4/β1 to VCAM-1", "setting": "α4/β1", "result": "inhibits"},
      {"measurement": "effectiveness against α4/β1 integrin", "setting": "α4/β1", "result": "effective"},
      {"measurement": "hydrolytic degradation", "setting": "Hydrolytic stability", "result": "susceptible to hydrolytic degradation"}
    ]},
    {"compound": "CN(C)C(=O)Oc1cc(O)cc(C(O)CNC(C)(C)C)c1", "note": "(centres unmarked) [monocarbamate ester]", "values": [
      {"measurement": "smooth muscle relaxing properties", "setting": "smooth muscle", "result": "did not exert any"}
    ]}
  ]
}
